Results as given in patent US20190040004A1, “NEW COMPOUNDS FOR THE TREATMENT AND/OR PREVENTION OF PARASITIC DISEASES AND METHOD OF PRODUCTION OF THEREOF” (INSTITUT DE RECHERCHE POUR LE DEVELOPPEMENT (I.R.D.), priority 2013, published 2019).
Entries after “also recorded” stand apart in the source; their conditions may differ. Where two headings read alike, the source gives them in different places.

Assays:
[1] = test system: T1, HDAC activity from HELA nuclear extract; assay: Fluorimetric HDAC assay, HeLa nuclear extract; type: biochemical, human
T1 construct: HELA Nuclear extracts IC50; other: HeLa nuclear extract, fluorimetric HDAC kit; […]
Experimental: HDAC inhibitory activity was determined by a fluorimetric HDAC assay kit (Active-motif, Belgium), according to manufacturer's instructions. […] Fluorogenic substrate (10 μL) was added, reaction was allowed to proceed for 30 min at room temperature, then stopped by the addition of a developer containing Tichostatin A.

recombinant HDAC1 = recombinant HDAC1 (Homo sapiens, UniProt Q13547); assay: Recombinant HDAC1 inhibition; type: biochemical; details: read-out: IC50 recombinant HDAC 1
Chain of recombinant HDAC1 (Q13547 whole entry): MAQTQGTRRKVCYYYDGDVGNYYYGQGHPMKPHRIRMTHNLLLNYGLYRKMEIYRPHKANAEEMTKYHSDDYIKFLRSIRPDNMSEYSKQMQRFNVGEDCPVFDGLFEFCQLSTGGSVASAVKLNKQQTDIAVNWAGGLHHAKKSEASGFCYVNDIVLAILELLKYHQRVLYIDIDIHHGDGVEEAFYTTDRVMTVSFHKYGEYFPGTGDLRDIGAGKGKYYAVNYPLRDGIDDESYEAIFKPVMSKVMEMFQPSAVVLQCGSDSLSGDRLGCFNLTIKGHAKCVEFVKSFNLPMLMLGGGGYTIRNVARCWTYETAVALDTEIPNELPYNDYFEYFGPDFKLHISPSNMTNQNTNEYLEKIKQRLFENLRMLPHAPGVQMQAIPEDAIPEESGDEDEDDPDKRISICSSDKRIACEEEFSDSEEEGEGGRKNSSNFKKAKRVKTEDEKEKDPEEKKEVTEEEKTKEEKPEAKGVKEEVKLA
Experimental: FIG. 2 illustrates the capacity of the different compounds of 600 nM to inhibit HDAC activity from HELA nuclear extract and from HDAC-recombinant proteins (HDAC 1, HDAC 3, HDAC 6, HDAC 8).
HDAC inhibitory activity was determined by a fluorimetric HDAC assay kit (Active-motif, Belgium), according to manufacturer's instructions. Briefly, 30 μL of HeLa nuclear extract were mixed with 5 μL of 10× compound to be tested and 10 μL of assay buffer. Fluorogenic substrate (10 μL) was added, reaction was allowed to proceed for 30 min at room temperature, then stopped by the addition of a developer containing Tichostatin A. Fluorescence was monitored after 30 min at excitation and emission wavelengths of 360 and 460 nm, respectively. […].

recombinant HDAC6 = target: T2, recombinant HDAC6 (Homo sapiens, UniProt Q9UBN7); assay: Recombinant HDAC6 inhibition; type: biochemical
T2 sequence (Q9UBN7 1-1215): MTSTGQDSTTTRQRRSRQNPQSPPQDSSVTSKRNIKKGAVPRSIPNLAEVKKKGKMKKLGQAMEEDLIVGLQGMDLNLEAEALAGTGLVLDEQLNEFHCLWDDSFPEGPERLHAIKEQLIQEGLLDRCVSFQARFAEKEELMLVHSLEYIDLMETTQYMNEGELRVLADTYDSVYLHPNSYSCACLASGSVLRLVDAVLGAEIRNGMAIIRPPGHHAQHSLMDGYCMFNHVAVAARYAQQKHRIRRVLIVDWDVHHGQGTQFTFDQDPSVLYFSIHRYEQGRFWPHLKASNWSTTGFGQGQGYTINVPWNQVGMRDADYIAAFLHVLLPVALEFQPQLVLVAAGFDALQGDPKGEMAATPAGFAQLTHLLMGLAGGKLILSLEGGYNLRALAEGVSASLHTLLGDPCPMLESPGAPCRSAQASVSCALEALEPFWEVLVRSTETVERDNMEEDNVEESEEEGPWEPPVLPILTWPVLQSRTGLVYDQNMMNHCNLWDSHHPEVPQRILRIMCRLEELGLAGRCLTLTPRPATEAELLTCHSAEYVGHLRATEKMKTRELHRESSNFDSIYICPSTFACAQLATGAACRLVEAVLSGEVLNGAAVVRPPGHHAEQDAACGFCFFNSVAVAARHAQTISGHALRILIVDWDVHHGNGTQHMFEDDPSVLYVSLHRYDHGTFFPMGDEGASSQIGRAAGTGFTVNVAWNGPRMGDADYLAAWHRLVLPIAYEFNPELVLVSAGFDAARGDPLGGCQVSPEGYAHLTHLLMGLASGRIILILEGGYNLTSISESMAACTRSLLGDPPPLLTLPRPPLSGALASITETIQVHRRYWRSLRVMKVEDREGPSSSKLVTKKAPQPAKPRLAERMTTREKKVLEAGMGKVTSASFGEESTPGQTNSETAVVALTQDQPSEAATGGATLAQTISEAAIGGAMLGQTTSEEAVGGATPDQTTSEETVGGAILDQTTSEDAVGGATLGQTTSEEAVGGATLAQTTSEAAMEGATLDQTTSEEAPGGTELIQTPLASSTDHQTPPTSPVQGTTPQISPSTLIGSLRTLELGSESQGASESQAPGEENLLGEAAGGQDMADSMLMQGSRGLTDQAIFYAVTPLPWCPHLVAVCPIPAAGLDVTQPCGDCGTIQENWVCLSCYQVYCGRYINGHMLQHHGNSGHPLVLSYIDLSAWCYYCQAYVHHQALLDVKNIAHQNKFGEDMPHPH

type I RH-YFP parasites = assay: RH-YFP type I Toxoplasma proliferation in HFF; type: cell-based, Toxoplasma gondii; details: 0.025 to 0.8 uM, 24 h
Experimental: (§1) To compare the activity of compounds according to the invention to that of prior art on toxoplasma proliferation, human foreskin fibroblasts (HFF) were plated in 96-wells plate (10 000 cells per well). Twenty-four hours later, cells were infected with 40 000 parasites, either RH-YFP type I or type II Prugniaud parasites or tachyzoites (kindly provided by B. Striepen, Athens) for one hour. Cells were then washed and drugs (compound D16 of formula
(§2) (FIG. 4 and FIG. 5) or compound according to the invention (363) (FIG. 6) added at various concentrations ranging from 0.025 to 0.8 uM. After 24 h, cells were washed and fixed (PBS-formaldehyde 2%) and nucleus stained with Hoechst 33258 (2 μg/ml). The number of infected cells ie. cells harbouring a parasitophorous vacuole and the number of parasites per vacuole was determined using an Olympus ScanR microscope (Olympus).

[2] = test system: type II Prugniaud parasites; assay: Type II Prugniaud Toxoplasma proliferation in HFF; type: cell-based, Toxoplasma gondii; details: 0.025 to 0.8 uM, 24 h
Experimental: as §1, §2

THP-1 cells = assay: MTT cytotoxicity on THP-1 host cells; type: cell-based
Experimental: (§3) Antiparasitic activity of a compound is represented by ICo50, which is calculated with Prism software (Prism4 for MacOSX Version 5.0b, December 2008). The cytoxicity of a compound against the host cells of L. infantum and T. gondii, such as THP-1 or HFF cells, was determined with a MTT assay, according to previously described protocol (Sereno et al., Antimicrob Agents Chemother. 2001, 45(4):1168-73). THP-1 is derived from the peripheral blood ofa human with acute monocytic leukemia.

[3] = test system: T. gondii (GFP expressing parasites) in HFF; assay: T. gondii proliferation in human foreskin fibroblasts; type: cell-based, Toxoplasma gondii; details: Toxoplasma gondii, Fibroblast, 24 h, 24 h
Experimental: To assess the drug activity on toxoplasma proliferation, human foreskin fibroblasts (HFF) were infected with GFP expressing parasites for 30 mns (Striepen et al., Mol Biochem Parasitol. 1998, 92(2):325-38). Cells were then washed and drugs added at various concentrations ranging from 0.1 to 10 uM. After 24 h, cells were washed and fixed (PBS-formaldehyde 2%) and nucleus stained with Hoechst 33258 (2 μg/ml). The number of infected cells i.e cells harbouring a parasitophorous vacuole and the number of parasites per vacuole were determined using an Olympus ScanR microscope (Olympus).
as §3

HFF cells = assay: MTT cytotoxicity on HFF host cells; type: cell-based
Experimental: as §3

[4] = test system: Leishmania infantum luciferase expressing strain (MHOM/MA/ITMAP269); assay: microbe, parasite or virus in culture; type: cell-based; details: Leishmania infantum, read-out: L. infantum IC50
Source text: THP-1 is derived from the peripheral blood ofa human with acute monocytic leukemia.

[5] = HeLa nuclear extract, fluorimetric HDAC kit, read-out: HELA Nuclear extracts IC50
[6] = read-out: T. gondi IC50, HFF infected, 24 h

| Structure (SMILES) | IC50 [1, 5] | IS Selectivity index LD50 (HFF)/IC50 T. gondii (HFF cells) | HFF LD50 (HFF cells; human) | IS Selectivity index LD50 (THP-1)/IC50 T. gondii (THP-1 cells) | THP-1 LD50 (THP-1 cells; human) | IC50 [4] | IC50 [3, 6] | also measured |
| --- | --- | --- | --- | --- | --- | --- | --- | --- |
| COc1ccccc1CNC(=O)c1ccc(C(=O)NO)cc1 [Compound D16, reference compound] | 7740 nM | – | – | – | – | – | – | IC50 (recombinant HDAC1): > 10 µM; IC50 (recombinant HDAC6): 198 nM; inhibitory activity on type I RH-YFP parasites proliferation, in words (type I RH-YFP parasites): lack of inhibitory effect; also recorded: no inhibitory activity; inhibitory activity on type II Prugniaud parasites proliferation, in words [2]: no inhibitory activity; inhibitory activity on type II Prugniaud parasites proliferation, in words ([2]; listed as Dl6): lack of inhibitory effect |
| O=C(CCCCCCC(=O)Nc1ccccc1)NO [SAHA, suberoylanilide hydroxamic acid, reference compound] | – | – | – | – | – | – | – | THP-1 LD50 (THP-1 cells; MTT cytotoxicity): >200 µM |
| COc1cccc(CC(=O)NCc2ccc(C(=O)NO)cc2)c1 [Compound 362] | 518 nM | >8 | >400 µM | 0.5 | 30.5 ± 3.0 µM | – | – | IC50 ([3]; HFF infected, read-out: T. gondi IC50): 52.5 µM |
| Cc1nc(-c2ccc(C(=O)Nc3ccc(C(=O)NO)cc3)cc2)cs1 [Compound 361] | 1820 nM | 1.5 | 25.0 ± 4.0 µM | 25 | >400 µM | > 60 µM | > 10 µM | IC50 ([1]; text summary of Table 1, less active compounds, read-out: HDAC inhibitory activity against HeLa cell nuclear extract): ~1000 nM |
| O=C(NO)c1ccccc1 [ST3, hydroxybenzamide, reference compound] | – | – | – | – | – | 29.3 µM | > 50 µM | HFF LD50 (HFF cells; MTT cytotoxicity): >400 µM |
